For experiment [1], the system named is Ras processing in COS cells. In words: Cell-based assay: COS cells, inhibition of Ras processing. As to the method: 2. Cell-Based Assay. COS IC50 values refer to the COS cells activity inhibition of Ras processing, are determined by the methods disclosed in […] or WO 95/10516.
In experiment [2] the target is T1, partially purified rat brain farnesyl protein transferase (FPT) (Rattus norvegicus, UniProt Q02293+Q04631).
T1 construct: partially purified rat brain farnesyl protein transferase (FPT); from tissue; host or cells: rat brain
In words: In vitro enzyme assay: inhibition of Ras-CVLS farnesylation by FPT. Format: biochemical.

Our source for the IC50 values is US6699872B2, “N-substituted urea inhibitors of farnesyl-protein transferase” (Schering Corporation, priority 1997, dated 2004).

The term IC50 denotes the point on the concentration scale where inhibition reaches its midpoint. High values mean lower potency, low ones higher potency.

On to `CCCNC(=O)N1CCC(CC(=O)N2CCN(C3c4ccc(Cl)cc4CCc4cc(Br)cnc43)CC2)CC1` (stereo not shown) [Example 15, 4-[2-[4-(3-Bromo-8-chloro-6,11-dihydro-5H-benzo[5,6]cyclohepta[1,2-b]pyridin-11-yl)-1-piperazinyl]-2-oxoethyl]-N-propyl-1-piperidinecarboxamide], for which the IC50 in experiment [1] is 1.5 µM; in experiment [2] it was 0.1 µM.

For `COc1ccccc1NC(=O)N1CCC(CC(=O)N2CCC([C@H]3c4ncc(Br)cc4CCc4cc(Cl)cc(Br)c43)CC2)CC1` [Example 1], the IC50 is 0.05 µM in experiment [1] and 0.0051 µM in experiment [2].

Regarding `NC(=O)CNC(=O)N1CCC(CC(=O)N2CCC([C@H]3c4ncc(Br)cc4CCc4cc(Cl)cc(Br)c43)CC2)CC1` [Example 13], the figures for the IC50 in experiment [1] and in experiment [2] were 0.025 µM and 0.0009 µM, respectively.

For the compound “(+)-Methyl alpha(S)-[[[4-[2-[4-[(3,10-dibromo-8-chloro-6,11-dihydro-5H-benzo[5,6]cyclohepta[1,2-b]pyridin-11(R)-yl)-1-piperidinyl]-2-oxoethyl]-1-piperidinyl]carbonyl]amino]-beta-methylbutanoate [Example 5]”, the IC50 in experiment [1] came out at 0.15 µM; in experiment [2] it was 0.005 µM.

Turning to `CCOC(=O)CNC(=O)N1CCC(CC(=O)N2CCC([C@H]3c4ncc(Br)cc4CCc4cc(Cl)cc(Br)c43)CC2)CC1` [Example 4], in experiment [2], the IC50 came to 0.002 µM.

In experiment [2], `CNC(=O)N1CCC(CC(=O)N2CCC([C@H]3c4ncc(Br)cc4CCc4cc(Cl)cc(Br)c43)CC2)CC1` [Example 3] had a 50% inhibitory concentration (IC50) of 0.0019 µM. The IC50 values of the last two compounds are within 1.5-fold of each other.

With `CC(C)(C)NC(=O)N1CCC(CC(=O)N2CCN(C3c4ccc(Cl)cc4CCc4cc(Br)cnc43)CC2)CC1` (stereo not shown) [Example 16, 4-[2-[4-(3-Bromo-8-chloro-6,11-dihydro-5H-benzo[5,6]cyclohepta[1,2-b]pyridin-11-yl)-1-piperazinyl]-2-oxoethyl]-N-(1,1-dimethylethyl)-1-piperidinecarboxamide], the half-maximal inhibitory concentration (IC50) in experiment [2] was 0.108 µM.

As for `CCOC(=O)N1CCC(NC(=O)N2CCC(CC(=O)N3CCC([C@H]4c5ncc(Br)cc5CCc5cc(Cl)cc(Br)c54)CC3)CC2)CC1` [Example 6], the values for the IC50 in experiment [1] and in experiment [2] were 0.02 µM and 0.0017 µM, respectively.

For the compound `COC(=O)[C@H](CO)NC(=O)N1CCC(CC(=O)N2CCC([C@H]3c4ncc(Br)cc4CCc4cc(Cl)cc(Br)c43)CC2)CC1` [Example 9], the IC50 in experiment [1] amounted to 0.11 µM; in experiment [2] it was 0.0033 µM.

As to `O=C(O)CNC(=O)N1CCC(CC(=O)N2CCC([C@H]3c4ncc(Br)cc4CCc4cc(Cl)cc(Br)c43)CC2)CC1` [Example 12], the IC50 in experiment [2] is 0.0008 µM.

In the case of `O=C(CC1CCN(C(=O)NCCO)CC1)N1CCC([C@H]2c3ncc(Br)cc3CCc3cc(Cl)cc(Br)c32)CC1` [Example 11], the figures for the IC50 in experiment [1] and in experiment [2] were 0.018 µM and 0.0031 µM, respectively.

Regarding `O=C(CC1CCN(C(=O)Nc2ccccc2)CC1)N1CCC([C@H]2c3ncc(Br)cc3CCc3cc(Cl)cc(Br)c32)CC1` [Example 2], the half-maximal inhibitory concentration (IC50) in experiment [1] is 0.033 µM; in experiment [2], 0.0054 µM.

Turning to `O=C(CC1CCN(C(=O)N(CCO)CCO)CC1)N1CCC([C@H]2c3ncc(Br)cc3CCc3cc(Cl)cc(Br)c32)CC1` [Example 7], the 50% inhibitory concentration (IC50) turned out to be 0.018 µM in experiment [1] and 0.0038 µM in experiment [2].

As for `CNC(=O)N1CCC(CC(=O)N2CCN(C3c4ccc(Cl)cc4CCc4cc(Br)cnc43)CC2)CC1` (stereo not shown) [Example 14, 4-[2-[4-(3-Bromo-8-chloro-6,11-dihydro-5H-benzo[5,6]-cyclohepta[1,2-b]pyridin-11-yl)-1-piperazinyl]-2-oxoethyl]-N-methyl-1-piperidinecarboxamide], the IC50 in experiment [1] amounted to 0.75 µM; in experiment [2], 0.05 µM.

On to `NC(=O)[C@H](CO)NC(=O)N1CCC(CC(=O)N2CCC([C@H]3c4ncc(Br)cc4CCc4cc(Cl)cc(Br)c43)CC2)CC1` [Example 10], for which the IC50 is 0.3 µM in experiment [1] and 0.0046 µM in experiment [2].

Turning to `COC(=O)[C@H](COC(C)(C)C)NC(=O)N1CCC(CC(=O)N2CCC([C@H]3c4ncc(Br)cc4CCc4cc(Cl)cc(Br)c43)CC2)CC1` [Example 8], the half-maximal inhibitory concentration (IC50) was determined as 0.12 µM in experiment [1] and 0.0087 µM in experiment [2].
